For data set [1], the system named is Mus musculus. Nature of the data set: Anti-inflammatory activity against MOG35-55-induced experimental autoimmune encephalomyelitis C57BL/6 mouse model assessed as reduction in serum monokines level by measuring reduction in IL-6 level at 600 mg/kg/day, ig for 14 days starting from 12th day of immunization by ELISA. The note with it: time 14.0 day. The class given is functional, organism-based.

Data set [2] has as its system Mus musculus. Briefly: Anti-inflammatory activity against MOG35-55-induced experimental autoimmune encephalomyelitis C57BL/6 mouse model assessed as reduction in EAE symptoms by measuring reduction in cumulative scores at 600 mg/kg/day, ig for 14 days starting from 12th day of immunization and measured from day 12 to 38 post-immunization. The class given is functional, organism-based. The note with it: time 1-26 day.

Data set [3] deals with Mus musculus. Nature of the data set: Anti-inflammatory activity against MOG35-55-induced experimental autoimmune encephalomyelitis C57BL/6 mouse model assessed as reduction in serum chemokines level by measuring reduction in CXCL1 level at 600 mg/kg/day, ig for 14 days starting from 12th day of immunization by ELISA. The settings on record: time 14.0 day. The class given is functional, organism-based.

The nature of data set [4]: Stability of the compound in THF/phosphate buffer at pH 7.4 incubated for 2 hrs under stirring conditions by 1H-NMR analysis. The class given is physicochemical. The settings on record: pH 7.4, 2 h.
Data set [5] has as its system Mus musculus. Briefly: Anti-inflammatory activity against MOG35-55-induced experimental autoimmune encephalomyelitis C57BL/6 mouse model assessed as reduction in TNF-alpha protein expression in brain at 300 to 600 mg/kg/day, ig for 14 days starting from 12th day of immunization by western blot analysis. The class given is functional, organism-based. The note with it: dose 300-600 mg/kg/day, time 14.0 day.

Data set [6] deals with Mus musculus. Briefly: Anti-inflammatory activity against MOG35-55-induced experimental autoimmune encephalomyelitis C57BL/6 mouse model assessed as fold change in C1S gene expression in brain at 600 mg/kg/day, ig for 14 days starting from 12th day of immunization by RT-qPCR analysis relative to control. The class given is functional. The note with it: time 14 day.
The subject of data set [7] is Mus musculus. Briefly: Anti-inflammatory activity against MOG35-55-induced experimental autoimmune encephalomyelitis C57BL/6 mouse model assessed as fold change in HIF1A gene expression in brain at 300 mg/kg/day, ig for 14 days starting from 12th day of immunization by RT-qPCR analysis relative to control. The class given is functional. The settings on record: time 14 day.

Data set [8] concerns Mus musculus. Briefly: Anti-inflammatory activity against MOG35-55-induced experimental autoimmune encephalomyelitis C57BL/6 mouse model assessed as reduction in serum chemokines level by measuring reduction in CCL5 level at 600 mg/kg/day, ig for 14 days starting from 12th day of immunization by ELISA. The note with it: time 14.0 day. The class given is functional, organism-based.

Data set [9] deals with Mus musculus. Briefly: Anti-inflammatory activity against MOG35-55-induced experimental autoimmune encephalomyelitis C57BL/6 mouse model assessed as reduction in APP protein expression in brain at 300 to 600 mg/kg/day, ig for 14 days starting from 12th day of immunization by western blot analysis relative to control. The class given is functional. The note with it: dose 300-600 mg/kg/day, time 14 day.

Data set [10] deals with Mus musculus. Briefly: Anti-inflammatory activity against MOG35-55-induced experimental autoimmune encephalomyelitis C57BL/6 mouse model assessed as increase in brain IL-10 level at 600 mg/kg/day, ig for 14 days starting from 12th day of immunization by ELISA. The class given is functional, organism-based. The settings on record: time 14.0 day.
Data set [11] deals with Mus musculus. Briefly: Anti-inflammatory activity against MOG35-55-induced experimental autoimmune encephalomyelitis C57BL/6 mouse model assessed as fold change in YWHAH gene expression in brain at 300 mg/kg/day, ig for 14 days starting from 12th day of immunization by RT-qPCR analysis relative to control. The class given is functional. The settings on record: time 14 day.

In data set [12] the test system is Mus musculus. Nature of the data set: Anti-inflammatory activity against MOG35-55-induced experimental autoimmune encephalomyelitis C57BL/6 mouse model assessed as methylation of CpG sites of IL11 gene promoter in brain at 600 mg/kg, ig for 14 days starting from 12th day of immunization by PCR analysis (reference value: 61.1 +/-4%). The settings on record: time 14 day. The class given is functional.

For data set [13], the system named is Mus musculus. Nature of the data set: Anti-inflammatory activity against MOG35-55-induced experimental autoimmune encephalomyelitis C57BL/6 mouse model assessed as reduction in serum Th1 cytokine level by measuring reduction in IL-2 level at 0.3 mg/kg/day, ig for 14 days starting from 12th day of immunization by ELISA. The class given is functional, organism-based. The settings on record: time 14.0 day.

Data set [14] relates to Mus musculus. Briefly: Anti-inflammatory activity against MOG35-55-induced experimental autoimmune encephalomyelitis C57BL/6 mouse model assessed as fold change in MBP gene expression in brain at 0.15 mg/kg/day, ig for 14 days starting from 12th day of immunization by RT-qPCR analysis relative to control. The class given is functional. The note with it: time 14 day.
Data set [15] concerns Mus musculus. Briefly: Anti-inflammatory activity against MOG35-55-induced experimental autoimmune encephalomyelitis C57BL/6 mouse model assessed as fold change in MAG gene expression in brain at 0.3 mg/kg/day, ig for 14 days starting from 12th day of immunization by RT-qPCR analysis relative to control. The class given is functional. The note with it: time 14 day.
Data set [16] relates to Mus musculus. Briefly: Anti-inflammatory activity against MOG35-55-induced experimental autoimmune encephalomyelitis C57BL/6 mouse model assessed as fold change in TGFB1 gene expression in brain at 0.3 mg/kg/day, ig for 14 days starting from 12th day of immunization by RT-qPCR analysis relative to control. The class given is functional. The settings on record: time 14 day.

Data set [17] deals with Mus musculus. Nature of the data set: Anti-inflammatory activity against MOG35-55-induced experimental autoimmune encephalomyelitis C57BL/6 mouse model assessed as fold change in H2EB1 (HLA-DRB1) gene expression in brain at 0.15 mg/kg/day, ig for 14 days starting from 12th day of immunization by RT-qPCR analysis relative to control. The class given is functional. The settings on record: time 14 day.

Data set [18] has as its system Mus musculus. Briefly: Anti-inflammatory activity against MOG35-55-induced experimental autoimmune encephalomyelitis C57BL/6 mouse model assessed as fold change in YWHAH gene expression in brain at 0.15 mg/kg/day, ig for 14 days starting from 12th day of immunization by RT-qPCR analysis relative to control. The class given is functional. The note with it: time 14 day.

In data set [19] the test system is Mus musculus. Nature of the data set: Anti-inflammatory activity against MOG35-55-induced experimental autoimmune encephalomyelitis C57BL/6 mouse model assessed as fold change in H2EB1 (HLA-DRB1) gene expression in brain at 0.3 mg/kg/day, ig for 14 days starting from 12th day of immunization by RT-qPCR analysis relative to control. The class given is functional. The note with it: time 14 day.

For data set [20], the system named is Mus musculus. Briefly: Anti-inflammatory activity against MOG35-55-induced experimental autoimmune encephalomyelitis C57BL/6 mouse model assessed as reduction in serum chemokines level by measuring reduction in CXCL1 level at 0.3 mg/kg/day, ig for 14 days starting from 12th day of immunization by ELISA. The class given is functional, organism-based. The settings on record: time 14.0 day.

Data set [21] has as its system Mus musculus. Briefly: Anti-inflammatory activity against MOG35-55-induced experimental autoimmune encephalomyelitis C57BL/6 mouse model assessed as fold change in C1S gene expression in brain at 0.15 mg/kg/day, ig for 14 days starting from 12th day of immunization by RT-qPCR analysis relative to control. The class given is functional. The settings on record: time 14 day.

Data set [22] concerns Mus musculus. Nature of the data set: Anti-inflammatory activity against MOG35-55-induced experimental autoimmune encephalomyelitis C57BL/6 mouse model assessed as fold change in APP gene expression in brain at 0.15 mg/kg/day, ig for 14 days starting from 12th day of immunization by RT-qPCR analysis relative to control. The class given is functional. The settings on record: time 14 day.

The subject of data set [23] is Mus musculus. Nature of the data set: Anti-inflammatory activity against MOG35-55-induced experimental autoimmune encephalomyelitis C57BL/6 mouse model assessed as methylation of CpG sites of IL13 gene promoter in brain at […], ig for 14 days starting from 12th day of immunization by PCR analysis (reference value: 57.3 +/-8%). The class given is functional. The note with it: time 14 day.

The values that follow come from ChEMBL document CHEMBL5226375, “Synthesis and Comprehensive in Vivo Activity Profiling of Olean-12-en-28-ol, 3β-Pentacosanoate in Experimental Autoimmune Encephalomyelitis: A Natural Remyelinating and Anti-Inflammatory Agent” (J Nat Prod, 2023).

Active and inactive are the calls of the source. The rule behind the calls is not given here.

As to `CCCCCCCCCCCCCCCCCCCCCCCCC(=O)O[C@H]1CC[C@]2(C)[C@H]3CC=C4[C@@H]5CC(C)(C)CC[C@]5(CO)CC[C@@]4(C)[C@]3(C)CC[C@H]2C1(C)C`, the outcome in the data set with Mus musculus [1], in the data set on Mus musculus [2], in the data set with Mus musculus [3], with Mus musculus [5], with Mus musculus [8] and with Mus musculus [10] was Active. For the same compound, the Stability result in data set [4] is listed as “Stable”. For the same compound, the “fold change (FC)” value is listed as 1.98 in the data set on Mus musculus [6], 1.92 in the data set on Mus musculus [7], 2 in the data set with Mus musculus [9] and -1.38 in the data set on Mus musculus [11]. Further, the Activity in the data set with Mus musculus [12] is reported as 41.4%.

For the compound `CCCCCCCCc1ccc(CCC(N)(CO)CO)cc1` [FINGOLIMOD], the outcome in the data set on Mus musculus [13] and with Mus musculus [20] was Active. The “fold change (FC)” value with Mus musculus [14] is listed as -1.1; in the data set on Mus musculus [15], -3.16; with Mus musculus [16] it was 10.7; with Mus musculus [17], 3.85; in the data set on Mus musculus [18], 1.1; in the data set with Mus musculus [19] it was 13.9. Besides, the “fold change (FC)” value in the data set with Mus musculus [21] is recorded as 1.91; in the data set with Mus musculus [22], 1.77. Moreover, the Activity in the data set with Mus musculus [23] was 33.1%.
